What was measured:
[1] = tested on: Cluster headache patients; conditions: human, in vivo
[2] = in vivo; cited from earlier work
[3] = tested on: pediatric procedural pain; conditions: in vivo; cited from earlier work
acute traumatic pain = conditions: in vivo; cited from earlier work
[4] = tested on: major depressive disorder; conditions: in vivo; cited from earlier work
[5] = tested on: migraine or Cluster headache patients; conditions: in vivo, iv; cited from earlier work

CCCC(CCC)C(=O)O [Depacon]
Case 3: success in shutting the cluster episode down ([1]; iv): only partial success

CNC1(c2ccccc2Cl)CCCCC1=O (stereo not drawn) [ketamine, 2-(2-chlorophenyl)-2-(methylamino)cyclohexanone]
Case 1: number of sprays after which patient reported feeling better [1]: 2-3 sprays | Case 1: side effects (dysphoria, out-of-body) [1]: no side effects | Case 2: cluster headache episode frequency over about a year [1]: beginning to get less frequent | Case 3: long-term course of cluster headache episodes [1]: only had one short cluster headache episode in the last three to four years | Cases 1-3: change from initial baseline on 0 to 10 Visual Analogue Scale (VAS) [1]: above 65% | Cases 1-3: dysphoria or nausea [1]: Increased dysphoria or nausea was not noted | Cases 1-3: out-of-body experiences or hallucinations [1]: No out-off body experiences, or hallucinations were observed | Case 1: outcome of IV treatment on cluster headaches ([1]; iv): complete cessation of the cluster headaches in three days | Case 2: change in cluster headache frequency ([1]; iv): from 5 episodes per day to only one cluster headache in the next week | Case 3: shortening of the duration of the cluster episode ([1]; iv): greater than two-thirds | terminal plasma half-life [2]: 2 to 3 h | time to peak plasma concentrations [2]: 10 to 15 min | onset of analgesia [3]: rapid onset of analgesia | side effects [3]: only slight sedation | efficacy in pain treatment compared to morphine IV or IM (acute traumatic pain): equal efficient in pain treatment | hallucinations or out-of-body experience (acute traumatic pain): No patients complained of hallucinations or out of-body experience | side effects (acute traumatic pain): mainly dizziness | time to onset (acute traumatic pain): approx. 15 min | effect on depressive symptoms [4]: rapid improvement of the depressive symptoms | serious adverse effects [4]: No serious adverse effects occurred | patients complaining of spaciness, fearfulness, jitteriness or lack of personal control [5]: approximately 43% | patients experiencing nausea at some point during treatment [5]: 3.2%

CCN(CC)CC(=O)Nc1c(C)cccc1C [lidocaine]
Case 3: success in shutting the cluster episode down ([1]; iv): only partial success

— patent publication US20220218627A1 (priority 2019, published 2022)
